Reference: patent US8399515B2, “Five and fifteen carbon fatty acids for treating metabolic disorders and as nutritional supplements” (Baylor Research Institute, priority 2003, dated 2013)
Values joined by “and” are separate entries in the source; they are usually repeats but may differ in a detail not shown here. Equal values may be shown once.

Legend:
Format in all cases: cell-based, human
[1] = test system: fibroblasts from patients with Short-chain acyl-CoA dehydrogenase (SCAD) deficiency; assay: Propionylcarnitine from oxidation of odd-carbon fatty acids in SCAD fibroblasts; settings: SCAD fibroblasts, one line per patient, 72 hours incubation
Method: (§1) Fibroblasts obtained from patients with inherited defects of mitochondrial fat oxidation were cultured in the presence of omega deuterated odd-carbon numbered fatty acids, as described in Roe, C. R., Sweetman, L., Roe, D. S., David, F., Brunengraber, H., “Effective Dietary Treatment of Cardiomyopathy & Rhabdomyolysis in Long-Chain Fat Oxidation Disorders using an Anaplerotic Odd-Chain Triglyceride,” J. Clin. Invest. 110 (2): 259-269 (2002).
(§2) The data in Table 1 represents testing of cultured fibroblasts derived from ten patients afflicted with Very-long-chain acyl-CoA dehydrogenase (VLCAD) deficiency (six patients with the severe cardiac form and four with the non-cardiac milder phenotype), two patients with Mitochondrial Trifunctional Protein (MTP) deficiency, five patients having L-3-hydroxy-acyl-CoA dehydrogenase (LCHAD) deficiency and three patients with Short-chain acyl-CoA dehydrogenase (SCAD) deficiency.

[2] = test system: control / normal fibroblasts; assay: Fate of odd-carbon fatty acids in control (normal) fibroblasts; set-up: *C3 acylcarnitine / *C5 acylcarnitine / *C7 acylcarnitine / *C9 acylcarnitine / *C11 acylcarnitine / *C13 acylcarnitine / *C15 acylcarnitine: unit not given here
Method: Fibroblasts obtained from patients with inherited defects of mitochondrial fat oxidation were cultured in the presence of omega deuterated odd-carbon numbered fatty acids, as described in Roe, C. R., Sweetman, L., Roe, D. S., David, F., Brunengraber, H., “Effective Dietary Treatment of Cardiomyopathy & Rhabdomyolysis in Long-Chain Fat Oxidation Disorders using an Anaplerotic Odd-Chain Triglyceride,” J. Clin. Invest. 110 (2): 259-269 (2002). […]

[3] = test system: fibroblasts from patients with VLCAD deficiency, non-cardiac milder phenotype; assay: Propionylcarnitine from oxidation of odd-carbon fatty acids in VLCAD (non-cardiac) fibroblasts; settings: VLCAD non-cardiac fibroblasts, one line per patient, 72 hours incubation
Method: as §1, §2

[4] = test system: fibroblasts from patients with inherited defects of mitochondrial fat oxidation; assay: Propionylcarnitine production in all fat-oxidation-defective fibroblast cell lines (comparison in words); settings: all VLCAD, MTP, LCHAD, SCAD cell lines; C5 versus C7; C15 versus C5 or C7
Method: as §1, §2

[5] = test system: fibroblasts from patients with Mitochondrial Trifunctional Protein (MTP) deficiency; assay: Propionylcarnitine from oxidation of odd-carbon fatty acids in MTP fibroblasts; settings: MTP fibroblasts, one line per patient, 72 hours incubation
Method: as §1, §2

[6] = test system: fibroblasts from MCAD heterozygote (carrier); assay: Fate of odd-carbon fatty acids in MCAD carrier fibroblasts; set-up: unit not given here
Method: as §1
Fibroblasts from four patients with MCAD deficiency and one heterozygote (carrier) indicate that odd-carbon fatty acids containing more than seven carbons can not be effectively used in that disease. […] That any C3 was produced is presumably due to overlapping

[7] = test system: fibroblasts from patients with L-3-hydroxy-acyl-CoA dehydrogenase (LCHAD) deficiency; assay: Propionylcarnitine from oxidation of odd-carbon fatty acids in LCHAD fibroblasts; settings: LCHAD fibroblasts, one line per patient, 72 hours incubation
Method: as §1, §2

[8] = test system: fibroblasts from patients with Very-long-chain acyl-CoA dehydrogenase (VLCAD) deficiency, severe cardiac form; assay: Propionylcarnitine from oxidation of odd-carbon fatty acids in VLCAD (cardiac) fibroblasts; settings: VLCAD cardiac fibroblasts, one line per patient, 72 hours incubation
Method: as §1, §2

[9] = test system: MCAD-deficient fibroblasts; assay: Fate of odd-carbon fatty acids in MCAD-deficient fibroblasts; set-up: *C3 acylcarnitine / *C5 acylcarnitine / *C7 acylcarnitine / *C9 acylcarnitine / *C11 acylcarnitine / *C13 acylcarnitine / *C15 acylcarnitine: unit not given here; settings: for *C3 acylcarnitine / *C5 acylcarnitine / *C7 acylcarnitine / *C9 acylcarnitine / *C11 acylcarnitine / *C13 acylcarnitine / *C15 acylcarnitine: MCAD fibroblasts, N 4
Method: as §1
Fibroblasts from four patients with MCAD deficiency and one heterozygote (carrier) indicate that odd-carbon fatty acids containing more than seven carbons can not be effectively used in that disease. […]

In the case of `CCCCCCCCCCCCCCC(=O)O` [C15, n-pentadecanoic acid], the “Propionylcarnitine from oxidation of fatty acid” value [1] is reported as 56.7 nmol/mg Protein/72 hours and 30.3 nmol/mg Protein/72 hours and 37.6 nmol/mg Protein/72 hours, the “*C3 acylcarnitine” value ([2]; CONTROL MEAN, N = 4) is reported as 46.8 and the “*C5 acylcarnitine” value ([2]; CONTROL MEAN, N = 4) is reported as 2.8. The “*C7 acylcarnitine” value ([2]; CONTROL MEAN, N = 4) was 0.8, the “*C9 acylcarnitine” value ([2]; CONTROL MEAN, N = 4) was 2.2 and the “*C11 acylcarnitine” value ([2]; CONTROL MEAN, N = 4) was 0.9. The “*C13 acylcarnitine” value ([2]; CONTROL MEAN, N = 4) was 0.7, the “*C15 acylcarnitine” value ([2]; CONTROL MEAN, N = 4) was 3.8 and the “Propionylcarnitine from odd carbon precursor” value ([2]; NORMAL fibroblasts) was 46.8 nmol/mg Protein/72 hours. The “Boosting the production of propionyl-CoA (in words)” value ([2]; normal cells, compared with C7 or C5) was “more effective in normal cells”, the “Propionylcarnitine from oxidation of fatty acid” value [3] was 16.4 nmol/mg Protein/72 hours and 19.2 nmol/mg Protein/72 hours and 36.0 nmol/mg Protein/72 hours and 11.5 nmol/mg Protein/72 hours and the “Quantity of propionylcarnitine produced, compared with the other odd-carbon fatty acids” value [4] was “less propionylcamitine”. For the same compound, the “Propionylcarnitine from oxidation of fatty acid” value [5] was 31.4 nmol/mg Protein/72 hours and 46.5 nmol/mg Protein/72 hours, the “*C3 acylcarnitine” value [6] was 33.5 and the “*C5 acylcarnitine” value [6] was 1.7. The “*C7 acylcarnitine” value [6] was 0.6, the “*C9 acylcarnitine” value [6] was 1.7 and the “*C11 acylcarnitine” value [6] was 0.5. The “*C13 acylcarnitine” value [6] was 0.2, the “*C15 acylcarnitine” value [6] was 1.9 and the “Propionylcarnitine from oxidation of fatty acid” value [7] was 34.6 nmol/mg Protein/72 hours and 15.1 nmol/mg Protein/72 hours and 15.9 nmol/mg Protein/72 hours and 6.9 nmol/mg Protein/72 hours and 13.9 nmol/mg Protein/72 hours. For the same compound, the “Propionylcarnitine from oxidation of fatty acid” value [8] was 11.7 nmol/mg Protein/72 hours and 5.3 nmol/mg Protein/72 hours and 21.6 nmol/mg Protein/72 hours and 8.0 nmol/mg Protein/72 hours and 6.6 nmol/mg Protein/72 hours and 9.9 nmol/mg Protein/72 hours, the “*C3 acylcarnitine” value ([9]; Maximum) was 19.6 and the “*C5 acylcarnitine” value ([9]; Maximum) was 1.6. For the same compound, the “*C7 acylcarnitine” value ([9]; Maximum) was 9.9, the “*C9 acylcarnitine” value ([9]; Maximum) was 17.5 and the “*C11 acylcarnitine” value ([9]; Maximum) was 1.0. For the same compound, the “*C13 acylcarnitine” value ([9]; Maximum) was 0.9, the “*C15 acylcarnitine” value ([9]; Maximum) was 4.7 and the “*C3 acylcarnitine” value ([9]; Mean) was 9.8. The “*C5 acylcarnitine” value ([9]; Mean) was 1.2, the “*C7 acylcarnitine” value ([9]; Mean) was 6.5 and the “*C9 acylcarnitine” value ([9]; Mean) was 10.9. For the same compound, the “*C11 acylcarnitine” value ([9]; Mean) was 0.7, the “*C13 acylcarnitine” value ([9]; Mean) was 0.4 and the “*C15 acylcarnitine” value ([9]; Mean) was 2.6. For the same compound, the “*C3 acylcarnitine” value ([9]; Minimum) was 3.1, the “*C5 acylcarnitine” value ([9]; Minimum) was 0.5 and the “*C7 acylcarnitine” value ([9]; Minimum) was 3.5. The “*C9 acylcarnitine” value ([9]; Minimum) was 4.3, the “*C11 acylcarnitine” value ([9]; Minimum) was 0.3 and the “*C13 acylcarnitine” value ([9]; Minimum) was 0.0. For the same compound, the “*C15 acylcarnitine” value ([9]; Minimum) was 1.0, the “Propionylcarnitine from odd carbon precursor” value ([9]; MCAD-1 fibroblast cell line) was 6.9 nmol/mg Protein/72 hours and the “Propionylcarnitine from odd carbon precursor” value ([9]; MCAD-2 fibroblast cell line) was 19.6 nmol/mg Protein/72 hours. The “Oxidation of the fatty acid in MCAD deficient fibroblasts (in words)” value ([9]; four MCAD patients' fibroblasts) was “a block in oxidation at C9 & C7”.
